Experimental data as given in patent US20240287124A1, “PRODRUGS OF 4'-SUBSTITUTED NUCLEOSIDE REVERSE TRANSCRIPTASE INHIBITORS” (Merck Sharp & Dohme LLC, priority 2023, published 2024).
pIC50: −log10 of the molar value. Converted amounts (≈) assume the structure as drawn. Where two headings read alike, the source gives them in different places.

Legend:
[1] = Aqueous solubility in PBS, pH 7.4; assay type: physicochemical; conditions: for solubility at 24 h: phosphate buffered saline, pH 7.4, aqueous buffer, thermodynamic from solid, pH 7.4 phosphate buffered saline, amorphous or crystalline material, read-out: Aqu. Solubility
Experimental: Aqueous solubility of the compounds was determined by suspending excess solid (typically 0.3-0.5 mg) in PBS, pH 7.4, at a concentration of 0.5 mg/mL. The suspension was vortexed for 10-30 seconds to wet the material and stirred at 600 rpm for 24 hours. For analysis by UPLC, 150 μL aliquot sample was transferred into a […] PVDF spin filter and centrifuged at 14,000 rpm for 5 minutes. 100 μL of the filtrate was diluted with 100 μL 1:1 Acetonitrile (ACN):H2O. The resultant samples were analyzed using UPLC and quantified against a standard curve of the compound of interest dissolved in 1:1 ACN:H2O. The retains of the solids were checked by XRPD and PLM to determine if the phase of the material was crystalline or amorphous.

[2] = tested on: HIV-1 wild-type (R8) virus; assay: Viral KINetics in Green cells (VIKING) assay, HIV-1 replication in MT4-GFP reporter cells; assay type: cell-based
Experimental: Antiviral potency of the compounds was determined based on their ability to block HIV-1 replication in a GFP reporter cell line; this assay is referred to as Viral KINetics in Green cells or VIKING assay. HIV-1 replication was monitored using MT4-gag-GFP clone D3 (hereafter designate MT4-GFP) cells, which are MT4 cells modified to harbor a GFP reporter gene, the expression of which is dependent on the HIV-1 proteins tat and rev. (MT4 is a human T-cell line that is particularly sensitive to HIV-1 replication.) HIV-1 infection of MT4-GFP cells results in GFP expression approximately 24 h post-infection. MT4-GFP cells were maintained at 37° C./5% CO2/90% relative humidity in RPMI 1640 supplemented with 10% fetal bovine serum, 100 U/mL penicillin/streptomycin, and […] G418 to maintain the reporter gene. For infections, MT4-GFP cells were placed in the same medium lacking G418 and infected overnight with HIV-1 wild-type (R8) virus at an approximate multiplicity of infection of 0.01 in the same incubation conditions. Cells were then washed and resuspended in RPMI 1640 containing 10% normal human serum at 2×10^5 cells/mL. Compound plates were prepared by dispensing compounds dissolved in DMSO into wells of 384-well poly D lysine-coated plates (0.2 μl/well) using an ECHO acoustic dispenser. Each compound was tested in a 10-point serial 3-fold dilution (typical final concentrations: 4 μM-0.2 nM). Controls included no inhibitor (DMSO only) and a combination of three antiviral agents as a positive control (efavirenz, indinavir, and an integrase strand transfer inhibitor at final concentrations of 4 μM each). Infected cells were added (50 μL/well) to compound plates and were maintained at 37° C./5% CO2/90% relative humidity. Infected cells were quantified at two time points, approximately 48 h and 72 h post-infection, by counting the number of green cells in each well using an Acumen eX3 scanner. The increase in the number of green cells over ˜24 h period gives the reproductive ratio, R, which is calculated by dividing the number of green cells at 72 h over those at 48 h post-infection. The percent inhibition caused by a test compound is calculated using the following formula: […]
The dose-response curves of each test compound were plotted as % inhibition versus the compound concentration. IC50 values were determined by non-linear 4-parameter fitting of the dose-response curves.

[3] = Human immunodeficiency virus 1, 10% normal human serum, MT4-GFP cells, HIV-1 wild-type (R8), read-out: Viking (10% NHS), IC50

Row | Compound | solubility ([1]; water, in water) [µg/mL] | pIC50 ([2]; Human immunodeficiency virus 1, parent compound, read-out: IC50 in the Viking assay) | solubility at 24 h [1] [µg/mL] | pIC50 [2, 3]
1 | C#C[C@]1(CO)O[C@@H](n2ccc3c(N)nc(Cl)nc32)C[C@@H]1OC(=O)OCCCCCCCCCC [Example 10, (2R,3S,5R)-5-(4-amino-2-chloro-7H-pyrrolo[2,3-d]pyrimidin-7-yl)-2-ethynyl-2-(hydroxymethyl)tetrahydrofuran-3-yl decyl carbonate] |  |  | < 1 | 8.00
2 | C#C[C@]1(COC(=O)Oc2ccccc2)O[C@@H](n2ccc3c(N)nc(Cl)nc32)C[C@@H]1O [Example 17, ((2R,3S,5R)-5-(4-amino-2-chloro-7H-pyrrolo[2,3-d]pyrimidin-7-yl)-2-ethynyl-3-hydroxytetrahydrofuran-2-yl)methyl phenyl carbonate] |  |  | 164 (≈ 382 µM) | 8.85
3 | C#C[C@]1(CO)O[C@@H](n2ccc3c(NC(=O)c4ccccc4)nc(Cl)nc32)C[C@@H]1O [Example 19, N-(2-chloro-7-((2R,4S,5R)-5-ethynyl-4-hydroxy-5-(hydroxymethyl)tetrahydrofuran-2-yl)-7H-pyrrolo[2,3-d]pyrimidin-4-yl)benzamide] |  |  | 34 (≈ 82.4 µM) | 6.42
4 | C#C[C@]1(COC(=O)CCCCCCCCC)O[C@@H](n2ccc3c(N)nc(Cl)nc32)C[C@@H]1O [Example 20, ((2R,3S,5R)-5-(4-amino-2-chloro-7H-pyrrolo[2,3-d]pyrimidin-7-yl)-2-ethynyl-3-hydroxytetrahydrofuran-2-yl)methyl decanoate] |  |  | < 1 | 8.55
5 | C#C[C@]1(CO)O[C@@H](n2ccc3c(NC(=O)CCCC)nc(Cl)nc32)C[C@@H]1O [Example 22, N-(2-chloro-7-((2R,4S,5R)-5-ethynyl-4-hydroxy-5-(hydroxymethyl)tetrahydrofuran-2-yl)-7H-pyrrolo[2,3-d]pyrimidin-4-yl)pentanamide] |  |  | 362 (≈ 921 µM) | 6.70
6 | C#C[C@]1(CO)O[C@@H](n2ccc3c(N)nc(Cl)nc32)C[C@@H]1OC(=O)CCCCCCCCCCC [Example 25, (2R,3S,5R)-5-(4-amino-2-chloro-7H-pyrrolo[2,3-d]pyrimidin-7-yl)-2-ethynyl-2-(hydroxymethyl)tetrahydrofuran-3-yl dodecanoate] |  |  | 2 (≈ 4.07 µM) | 8.46
7 | C#C[C@]1(CO)O[C@@H](n2ccc3c(N)nc(Cl)nc32)C[C@@H]1OC(=O)CCCCCCCCCCCCC [Example 26, (2R,3S,5R)-5-(4-amino-2-chloro-7H-pyrrolo[2,3-d]pyrimidin-7-yl)-2-ethynyl-2-(hydroxymethyl)tetrahydrofuran-3-yl tetradecanoate] |  |  | < 1 | 8.15
8 | C#C[C@]1(COC(=O)Cc2ccc(F)cc2)O[C@@H](n2ccc3c(N)nc(Cl)nc32)C[C@@H]1OC(=O)Cc1ccc(F)cc1 [Example 29, (2R,3S,5R)-5-(4-amino-2-chloro-7H-pyrrolo[2,3-d]pyrimidin-7-yl)-2-ethynyl-2-((2-(4-fluorophenyl)acetoxy)methyl)tetrahydrofuran-3-yl 2-(4-fluorophenyl)acetate] |  |  | < 1 | 8.24
9 | C#C[C@]1(CO)O[C@@H](n2ccc3c(N)nc(Cl)nc32)C[C@@H]1OC(=O)CCC12CC3CC(CC(C3)C1)C2 [Example 30] |  |  | < 1 | 8.44
10 | C#C[C@]1(CO)O[C@@H](n2ccc3c(N)nc(Cl)nc32)C[C@@H]1OC(=O)Cc1ccc(F)cc1 [Example 31, (2R,3S,5R)-5-(4-amino-2-chloro-7H-pyrrolo[2,3-d]pyrimidin-7-yl)-2-ethynyl-2-(hydroxymethyl)tetrahydrofuran-3-yl 2-(4-fluorophenyl)acetate] |  |  | 11 (≈ 24.7 µM) | 8.34

Now from value to compound, other results behind:

Row | solubility ([1]; water, in water) [µg/mL] | pIC50 ([2]; Human immunodeficiency virus 1, parent compound, read-out: IC50 in the Viking assay) | solubility at 24 h [1] [µg/mL] | Compound | pIC50 [2, 3]
11 | 500 (≈ 1620 µM) | 8.48 |  | C#C[C@]1(CO)O[C@@H](n2ccc3c(N)nc(Cl)nc32)C[C@@H]1O [Compound A, (2R,3S,5R)-5-(4-amino-2-chloro-7H-pyrrolo[2,3-d]pyrimidin-7-yl)-2-ethynyl-2-(hydroxymethyl)tetrahydrofuran-3-ol, reference compound] | 
12 |  |  | < 1 | C#C[C@]1(CO)O[C@@H](n2ccc3c(N)nc(Cl)nc32)C[C@@H]1OC(=O)CCCCCCCCC [Example 4, (2R,3S,5R)-5-(4-amino-2-chloro-7H-pyrrolo[2,3-d]pyrimidin-7-yl)-2-ethynyl-2-(hydroxymethyl)tetrahydrofuran-3-yl decanoate] | 8.54
13 |  |  | 1.9 (≈ 4.49 µM) | C#C[C@]1(CO)O[C@@H](n2ccc3c(N)nc(Cl)nc32)C[C@@H]1OC(=O)OCCCCC [Example 13, (2R,3S,5R)-5-(4-amino-2-chloro-7H-pyrrolo[2,3-d]pyrimidin-7-yl)-2-ethynyl-2-(hydroxymethyl)tetrahydrofuran-3-yl pentyl carbonate] | 8.66
14 |  |  | < 1 | C#C[C@]1(COC(=O)CCCCCCCCCCCCCCC)O[C@@H](n2ccc3c(N)nc(Cl)nc32)C[C@@H]1O [Example 16, ((2R,3S,5R)-5-(4-amino-2-chloro-7H-pyrrolo[2,3-d]pyrimidin-7-yl)-2-ethynyl-3-hydroxytetrahydrofuran-2-yl)methyl palmitate] | 8.25
15 |  |  | 0.45 (≈ 0.913 µM) | C#C[C@]1(COC(=O)OCCCCCCCCCC)O[C@@H](n2ccc3c(N)nc(Cl)nc32)C[C@@H]1O [Example 18, ((2R,3S,5R)-5-(4-amino-2-chloro-7H-pyrrolo[2,3-d]pyrimidin-7-yl)-2-ethynyl-3-hydroxytetrahydrofuran-2-yl)methyl decyl carbonate] | 8.68
16 |  |  | < 1 | C#C[C@]1(CO)O[C@@H](n2ccc3c(NC(=O)CCCCCCCCCCC)nc(Cl)nc32)C[C@@H]1O [Example 21, N-(2-chloro-7-((2R,4S,5R)-5-ethynyl-4-hydroxy-5-(hydroxymethyl)tetrahydrofuran-2-yl)-7H-pyrrolo[2,3-d]pyrimidin-4yl)dodecanamide] | 7.74
17 |  |  | < 1 | C#C[C@]1(CO)O[C@@H](n2ccc3c(N)nc(Cl)nc32)C[C@@H]1OC(=O)CCCCCCC [Example 24, (2R,3S,5R)-5-(4-amino-2-chloro-7H-pyrrolo[2,3-d]pyrimidin-7-yl)-2-ethynyl-2-(hydroxymethyl)tetrahydrofuran-3-yl octanoate] | 8.77
18 |  |  | < 1 | C#C[C@]1(CO)O[C@@H](n2ccc3c(N)nc(Cl)nc32)C[C@@H]1OC(=O)OCc1ccccc1 [Example 27, (2R,3S,5R)-5-(4-amino-2-chloro-7H-pyrrolo[2,3-d]pyrimidin-7-yl)-2-ethynyl-2-(hydroxymethyl)tetrahydrofuran-3-ylbenzyl carbonate] | 8.51
19 |  |  | 68 (≈ 164 µM) | C#C[C@]1(CO)O[C@@H](n2ccc3c(N)nc(Cl)nc32)C[C@@H]1OC(=O)c1ccccn1 [Example 28, (2R,3S,5R)-5-(4-amino-2-chloro-7H-pyrrolo[2,3-d]pyrimidin-7-yl)-2-ethynyl-2-(hydroxymethyl)tetrahydrofuran-3-yl picolinate] | 8.37
20 |  |  | 3.7 (≈ 8.02 µM) | C#C[C@]1(CO)O[C@@H](n2ccc3c(N)nc(Cl)nc32)C[C@@H]1OC(=O)Cc1ccc(Cl)cc1 [Example 32, (2R,3S,5R)-5-(4-amino-2-chloro-7H-pyrrolo[2,3-d]pyrimidin-7-yl)-2-ethynyl-2-(hydroxymethyl)tetrahydrofuran-3-yl 2-(4-chlorophenyl)acetate] | 8.29
